Values of other authors in publication PMC4333608 (Chemical Science, 2014).

Biological target: T1, São Paulo metallo-β-lactamase-1 (SPM-1) (Pseudomonas aeruginosa, UniProt Q8G9Q0)
T1 sequence (Q8G9Q0 29-276): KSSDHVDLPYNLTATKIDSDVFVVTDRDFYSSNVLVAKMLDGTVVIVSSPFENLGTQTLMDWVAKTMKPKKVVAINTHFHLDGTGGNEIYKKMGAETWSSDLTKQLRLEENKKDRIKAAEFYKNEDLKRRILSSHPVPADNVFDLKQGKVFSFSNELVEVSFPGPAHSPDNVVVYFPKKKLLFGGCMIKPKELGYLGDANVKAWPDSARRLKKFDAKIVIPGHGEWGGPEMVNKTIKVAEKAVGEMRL
Test: enzyme inhibition IC50
Type: biochemical

O=C(O)c1cc(CS)cc(CS)c1 [3,5-bis(mercaptomethyl)benzoic acid]
IC50: 700 nM
